Series [1] relates to MCF-7 cells. The series is described as follows: Lactate dehydrogenase (LDH) assay for cytotoxicity. The settings on record: Homo sapiens, MCF7; MCF-7, compound concentration 10 μM, 24 h; read-out: Lactate Dehydrogenase assay: % cell lysis (cell death). It is filed as cell-based. How it is done: The toxicity and selectivity of 10n towards normal cells was investigated in the non-tumourigenic cell line HEK-293T (normal human epithelial embryonic kidney cells). […] The cytotoxic effect of selected 3-chloro-β-lactams 10e, 10f, 10i, 10n and 3,3-dichloro-β-lactams 11e and 11n in MCF-7 cells was initially determined using the lactate dehydrogenase (LDH) assay.
The cytotoxicity of selected compounds was determined using the CytoTox 96 non-radioactive cytotoxicity assay (Promega Corporation, Madison, WI, USA). Briefly, MCF-7 cells were seeded in a 96-well plate (200 μL per well), at a density of 2.5 × 10^4 cells/mL, and incubated for 24 h. The cells were then treated with selected β-lactam compounds as described above for the cell viability assay. […] Supernatant (50 μL) was removed from each well to a 96-well plate. Reconstituted ‘CytoTox 96® Reagent (50 μL) was added to each well and the plate was placed in the dark at 20 °C for 30 min. ‘Stop solution’ (50 μL) was added to each well and the samples were analysed at 490 nm using a Dynatech MR5000 plate reader. The percentage cell death at 10 μM was calculated.

The subject of series [2] is MCF-7 cells. The experiment in a line: Cell viability assay (MTT/AlamarBlue), antiproliferative activity. It is filed as cell-based, human. To be noted: MCF-7, 72 h; for IC50: Homo sapiens, MCF7, 72 h, read-out: IC50 (MCF-7, 72 h). The source says:
[…]. The introduction of the halogen substituent at C-3 was examined in an effort to investigate the effect on the activity of this substituent, and subsequently optimising the cytotoxic effects against MCF-7 human breast cancer cells.
The human breast carcinoma cell line MCF-7 was purchased from the European Collection of Animal Cell Cultures (ECACC). Triple negative breast cancer Hs578T cells and its invasive variant Hs578Ts(i)8 were a kind gift from Dr. Susan McDonnell, School of Chemical and Bioprocess Engineering, University College Dublin. U266 cells were a gift from Dr. Tony McElligott, School of Medicine, St James’s Hospital, Trinity College Dublin. HT-29 cells were purchased from the European Collection of Cell Cultures (originating from a human adenocarcinoma of the colon). The human breast carcinoma cell line MDA-MB-231 and the HL-60 cells derived from a patient with acute myeloid leukaemia were both obtained from ECACC (Salisbury, UK). The SW-480 cells were a kind gift from Dr. Brian Flood, School of Biochemistry and Immunology, Trinity College Dublin. HEK-293T (normal epithelial embryonic kidney cells) were cultured in Dulbecco’s Modified Eagle’s Medium (DMEM) with GlutaMAXTM-I in the absence of non-essential amino acids. Human breast cancer MCF-7 cells and multiple myeloma U266 cells were cultured in Minimum Essential Media (MEM) with GlutaMAX™-I, supplemented with 1% (v/v) non-essential amino acids, 10% 2(v/v) foetal bovine serum (FBS) and 1% (v/v) penicillin/streptomycin 5000 U/mL. MDA-MB-231 cells were maintained in DMEM supplemented with 10% (v/v) foetal bovine serum, 2 mM L-glutamine and 100 μg/mL penicillin/streptomycin (complete medium). Colon cancer HT-29 and SW-480 and triple negative breast cancer Hs578T and its invasive variant Hs578T8i were cultured in DMEM with GlutaMAX™-I, with the same supplement in the absence of non-essential amino acids. Leukaemia HL-60 cancer cells were cultured in Roswell Park Memorial Institute Media (RPMI-1640) with GlutaMAX™-I, supplemented with 10% FCS media, and 100 μg/mL penicillin/streptomycin as above. Cell numbers were monitored using a haemocytometer. Cell culture flasks were incubated in a humidified incubator (5% CO2/95% air) at 37 °C. All cell lines were sub-cultured three times per week with trypsinisation using TrypLE Express (1X) required for adherent cell lines.
. All stock solutions and serial dilution in ethanol/DMSO were stored at -20 °C. All cells were seeded at a density of 2.5 × 10^4 cells/mL in a 96-well plate (200 μL per well). The cells were incubated in a […] atmosphere at 37 °C for 24 h, then treated with test compound (2 μL of stock solutions per 200-microlitre well) in ethanol to obtain a concentration range of 1 nM–200 μM for the study. The plates were then re-incubated for a further 72 h. Control wells contained an equivalent volume of the vehicle ethanol or DMSO (1% v/v). MTT cell viability assay: The culture medium was removed, and the cells were washed with phosphate buffered saline (PBS, […]). MTT (dissolved in PBS, […]) was added to obtain a final concentration of MTT (1 mg/mL). Cells were incubated at 37 °C for 3 h in the dark. Solubilisation was commenced by the addition of DMSO ([…]) and the cells were maintained at 20 °C in the dark for 20 min before reading the absorbance to ensure complete colour diffusion. The absorbance value of control cells (no added compound) was set to 100% cell viability and absorbance versus cell density per well was determined to assess cell viability using Graph-Pad Prism software. AlamarBlue cell viability assay: Cells were seeded in 96-well plates (e.g., MCF-7, 5 × 10^3 cells/well) and (HT-29 cells, 1 × 10^3 cells/well) and (HL-60 cells, 1 × 10^4 cells/well) with a total volume per well of 200 µL. After 24 h, cells were treated in triplicate with serial dilutions of CA-4 or β-lactam analogues (0.001–100 μM), medium alone or vehicle (1% ethanol (v/v)). […]

We go through eight compounds from publication PMC8624998, “Synthesis and Antiproliferative Evaluation of 3-Chloroazetidin-2-ones with Antimitotic Activity: Heterocyclic Bridged Analogues of Combretastatin A-4” (Pharmaceuticals, 2021).

As a reminder, the IC50 is the concentration that inhibits the measured activity by half. Broadly, the melting point is the temperature of the solid-liquid transition.

Marks after values point to notes of the source that are not given here.

As for `COc1ccc(C(=O)c2cc(OC)c(OC)c(OC)c2)cc1O` [Compound 3a, phenstatin, reference compound], the cytotoxicity at 10 µM in the series with MCF-7 cells [1] amounted to 12%.
With `COc1cc(N2C(=O)C(Cl)C2c2cccc3ccccc23)cc(OC)c1OC` (stereo not drawn) [Compound 10j, 3-Chloro-1-(3,4,5-trimethoxyphenyl)-4-(naphthalen-1-yl)azetidin-2-one], the half-inhibitory concentration (IC50) in the series on MCF-7 cells [2] was found to be 14.7 ± 2.26 µM. The cytotoxicity at 10 µM in the series on MCF-7 cells [1] was 4%.
On to `COc1cc(C2C(Cl)C(=O)N2c2ccc(SC)cc2)cc(OC)c1OC` (stereo not drawn) [Compound 12c, 3-Chloro-1-(4-(methylthio)phenyl)-4-(3,4,5-trimethoxyphenyl) azetidin-2-one], for which the melting point is 101 to 103 °C. Further, the “inhibition of cell viability at a concentration of 10 μM” value (“inhibition of cell viability” below) in the series with MCF-7 cells [2] is on record as 10% (10 μM) ^c.
`COc1ccc(N2C(=O)C(Cl)(Cl)C2c2cc(OC)c(OC)c(OC)c2)cc1` (stereo not drawn) [Compound 13a, 3,3-Dichloro-4-(3,4,5-trimethoxyphenyl)-1-(4-methoxyphenyl)azetidin-2-one] displayed a melting point of 64 to 66 °C. In addition, in the series with MCF-7 cells [2], the IC50 came to 45.9 ± 6.73 µM.
`CCOc1ccc(N2C(=O)C(Cl)(Cl)C2c2cc(OC)c(OC)c(OC)c2)cc1` (stereo not drawn) [Compound 13b, 3,3-Dichloro-1-(4-ethoxyphenyl)-4-(3,4,5-trimethoxyphenyl)azetidin-2-one] registered a melting point of 133 to 134 °C. Also, the “inhibition of cell viability” value in the series with MCF-7 cells [2] is 40% (10 μM)^c.
As for `COc1cc(C2N(c3ccc(SC)cc3)C(=O)C2(Cl)Cl)cc(OC)c1OC` (stereo not drawn) [Compound 13c, 3,3-Dichloro-1-(4-(methylthio)phenyl)-4-(3,4,5-trimethoxyphenyl) azetidin-2-one], the melting point fell in the range of 117 to 119 °C. Besides, the “inhibition of cell viability” value in the series on MCF-7 cells [2] was 20% (10 μM)^c.
For the compound `COc1ccc(C2C(Cl)C(=O)N2c2cc(OC)cc(OC)c2)cc1` (stereo not drawn) [Compound 14a, 3-Chloro-1-(3,5-dimethoxyphenyl)-4-(4-methoxyphenyl)azetidin-2-one], the melting point lay within 93 to 94 °C. Moreover, the IC50 in the series on MCF-7 cells [2] came out at 0.68 ± 0.16 µM.
For `CCOc1ccc(C2C(Cl)C(=O)N2c2cc(OC)cc(OC)c2)cc1` (stereo not drawn) [Compound 14b, 3-Chloro-1-(3,5-dimethoxyphenyl)-4-(4-ethoxyphenyl)azetidin-2-one], in that order: 129 to 130 °C and 0.045 ± 0.01 µM.
